4 compounds from patent publication US20090099207A1, “Cyclic sulfones useful as BACE inhibitors” (priority 2006, published 2009) can be followed below.

The structures appear in SMILES notation.

Data set [1] is described as follows: Test 4: Inhibition of cellular release of amyloid peptide 1-40. Format: cell-based, Chinese hamster. The settings on record: Cricetulus griseus; CHO cells transfected with APP gene; 24 hours with test compound; amyloid peptide 1-40 in supernatant by sandwich ELISA. An excerpt: Test 4: Inhibition of Cellular Release of Amyloid Peptide 1-40

As a reminder, the melting point is the temperature of the solid-liquid transition. `CC(C)c1cccc(CN[C@H]2CS(=O)(=O)C[C@@H](Cc3ccc(Nc4ccncn4)cc3)[C@@H]2O)c1` [Example 44, (3R,4S,5S)-3-(3-Isopropyl-benzylamino)-1,1-dioxo-5-[4-(pyrimidin-4-ylamino)-benzyl]-hexahydro-1lambda*6*-thiopyran-4-ol]: the melting point lay in the range of 136 to 139 °C.
The compound `COc1ccc(C[C@@H]2CS(=O)(=O)C[C@H](NCc3cccc(C(C)C)c3)[C@H]2O)cc1Br.Cl` registered a melting point of 173 to 175 °C.
The compound `CC(C)c1cccc(CN[C@H]2CS(=O)(=O)C[C@@H](Cc3ccccc3)[C@@H]2O)c1.Cl` (hydrate or solvate) registered a melting point of 239 to 242 °C.
By IC50 is commonly meant the concentration needed to halve the response being measured. `CO[C@@H](C)COCc1cccc(C[C@@H]2CS(=O)(=O)C[C@H](NCc3cccc(C(C)C)c3)[C@H]2O)c1` [Example 26, (3R,4S,5S)-3-(3-Isopropyl-benzylamino)-5-[3-((S)-2-methoxy-propoxy-methyl)-benzyl]-1,1-dioxo-hexahydro-1lambda*6*-thiopyran-4-ol] came in with an IC50 in data set [1] of 4.7 µM. That is a single-digit micromolar value.
